Experimental findings from patent publication US7803930B2, “Antisense modulation of apolipoprotein B-expression” (Isis Pharmaceuticals, Inc., priority 2002, dated 2010) are described below.

The data set relates to human apolipoprotein B mRNA. Nature of the data set: Inhibition of human apolipoprotein B mRNA levels in HepG2 cells, quantitative real-time PCR. The format is cell-based. To be noted: for % INHIB (inhibition of human apolipoprotein B mRNA levels): HepG2 cells treated with 150 nM of compound, quantitative real-time PCR; for % inhibition of apolipoprotein B mRNA levels: normalized to untreated control, average of two experiments; for % Change in apolipoprotein B mRNA expression: 24 hour (Table 40). Put shortly:
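Apolipoprotein B transcript was quantified by one-step TaqMan RT-PCR, normalized to GAPDH or RiboGreen RNA, and expressed as percent inhibition against an untreated-sample standard curve. HepG2 cells were harvested 16-24 h after oligonucleotide exposure, which was delivered with 3.75 μg/mL Lipofectin over 4-7 h at 80% confluency.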

[1] abbreviates: Table 1, HepG2 cells, 150 nM, averages from two experiments.
Where [2] appears, read: HepG2 cells, human apolipoprotein B mRNA, oligonucleotides targeting genomic sequence SEQ ID NO 334, averages from two experiments.
Where [3] appears, read: HepG2 cells, 50 nm oligonucleotide, variable deoxy gap position.
The mark [4] stands for this setting: HepG2 cells, 150 nm oligonucleotide, variable deoxy gap position.
The mark [5] stands for this setting: Table 15, HepG2 cells, 150 nM, averages from two experiments.
[6] abbreviates: Table 11 gene walk, HepG2 cells, 50 nM, averages from two experiments.
Setting [7] is: Table 11 gene walk, HepG2 cells, 150 nM, averages from two experiments.

In the oligonucleotide strings, read from the 5' end, every base follows the letter of its sugar. An asterisk marks phosphorothioate; unmarked linkages are phosphodiester. Other units and linkages are bracketed, terminal groups are in braces. A string of capitals states the bases alone. e = 2'-O-(2-methoxyethyl) (MOE); [5mC] = 5-methylcytosine; d = 2'-deoxy (DNA)

As for “281645 (eT*e[5mC]*eT*eG*e[5mC]*dA*d[5mC]*dT*dG*dA*dA*dG*dT*d[5mC]*dA*e[5mC]*eG*eG*eT*eG; antisense) [compound 281645]”, where the note is “averages from two experiments”, the “% INHIB (inhibition of human apolipoprotein B mRNA levels)” value came to 78%. For “147809 (antisense e[5mC]*e[5mC]*e[5mC]*eA*eG*dT*dG*dA*dT*dA*dG*d[5mC]*dT*d[5mC]*dT*eG*eT*eG*eA*eG) [compound 147809]”, under setting [1], the “% INHIB” value is recorded as 60%.

As for “301204 (antisense eA*eG*e[5mC]*eT*e[5mC]*d[5mC]*dA*dT*dA*d[5mC]*dT*dG*dA*dA*dG*eT*e[5mC]*e[5mC]*eT*eT) [compound 301204]”, the “% INHIB” value under setting [2] stood at 37%. Take “281634 (antisense e[5mC]*eT*e[5mC]*eT*e[5mC]*dG*dA*dT*dT*dA*dA*d[5mC]*dT*d[5mC]*dA*eT*eG*eG*eA*e[5mC]) [compound 281634]”: the “% INHIB (inhibition of human apolipoprotein B mRNA levels)” value (averages from two experiments) is on record as 81%. Turning to “301018 (e[5mC]*eT*e[5mC]*e[5mC]*eT*d[5mC]*dA*dG*d[5mC]*dG*dG*d[5mC]*dA*dG*d[5mC]*eA*eA*e[5mC]*e[5mC]*eG; antisense) [compound 301018]”, the “% INHIB (inhibition of human apolipoprotein B mRNA levels)” value (averages from two experiments) was 45%. As to “271006 (antisense eA*eG*eT*e[5mC]*e[5mC]*dG*dG*dA*dA*dT*dG*dA*dT*dG*dA*eT*eG*e[5mC]*e[5mC]*e[5mC]) [compound 271006]”, the “% INHIB (inhibition of human apolipoprotein B mRNA levels)” value (averages from two experiments) is on record as 42%. “308658 (antisense AGGTTACCAGCCACATGCAG; 9-10-1 2'-MOE gapmer, phosphorothioate, chemistry not fully specified) [compound 308658]”: the “% inhibition of apolipoprotein B mRNA levels” value reads like this: (HepG2 cells, 12.5 nM oligonucleotide) 29%; (HepG2 cells, 37 nM oligonucleotide) 61%; (HepG2 cells, 75 nM oligonucleotide) 73%; (HepG2 cells, 150 nM oligonucleotide) 78%; (HepG2 cells, 300 nM oligonucleotide) 90%. Further, the “% INHIB 50 nm” value under setting [3] is on record as 86%. For the same substance, the “% INHIB 150 nm” value under setting [4] stood at 78%. In the case of “270995 (antisense eT*e[5mC]*e[5mC]*eT*e[5mC]*dT*dT*dA*dG*d[5mC]*dG*dT*d[5mC]*d[5mC]*dA*eG*eT*eG*eT*eG) [compound 270995]”, for the setting “averages from two experiments”, the “% INHIB (inhibition of human apolipoprotein B mRNA levels)” value amounted to 40%. In the case of “301058 (eA*eG*eG*eA*eG*dG*dA*dT*dG*dT*d[5mC]*d[5mC]*dT*dT*dT*eT*eA*eT*eT*eG; antisense) [compound 301058]”, the “% INHIB” value under setting [2] came to 27%. For “301223 (antisense eA*eA*eT*e[5mC]*eA*d[5mC]*dA*d[5mC]*dT*dA*dT*dG*dT*dG*dT*eT*e[5mC]*eT*eA*eG) [compound 301223]”, the “% INHIB” value under setting [5] is listed as 26%. For the substance “301191 (antisense eT*eT*e[5mC]*eT*e[5mC]*dT*dT*d[5mC]*dA*dT*d[5mC]*dT*dG*dA*dA*eA*eA*eT*eA*e[5mC]) [compound 301191]”, the “% INHIB” value under setting [2] was 21%. On to “281649 (eG*e[5mC]*e[5mC]*eA*eT*d[5mC]*d[5mC]*dT*dT*d[5mC]*dT*dG*dA*dG*dT*eT*e[5mC]*eA*eG*eA; antisense) [compound 281649]”, for which the “% INHIB (inhibition of human apolipoprotein B mRNA levels)” value (averages from two experiments) is given as 76%.

As for “301080 (e[5mC]*e[5mC]*e[5mC]*eA*eG*d[5mC]*dA*dA*dA*d[5mC]*dA*d[5mC]*dA*dG*dG*eT*eG*eA*eA*eG; antisense) [compound 301080]”, the “% INHIB” value under setting [2] stood at 25%.

Take “301224 (antisense eA*eA*eA*eT*e[5mC]*dA*d[5mC]*dA*d[5mC]*dT*dA*dT*dG*dT*dG*eT*eT*e[5mC]*eT*eA) [compound 301224]”: the “% INHIB” value under setting [5] came to 33%.

Consider “301099 (antisense eA*e[5mC]*e[5mC]*eA*e[5mC]*d[5mC]*dT*dG*dA*d[5mC]*dA*dT*d[5mC]*dA*d[5mC]*eA*eG*eG*eT*eT) [compound 301099]”, for which the “% INHIB” value under setting [2] turned out to be 24%. As to “147788 (antisense eT*eT*eT*e[5mC]*eT*dG*dT*dT*dG*d[5mC]*d[5mC]*dA*d[5mC]*dA*dT*eT*eG*e[5mC]*e[5mC]*e[5mC]) [compound 147788]”, the “% INHIB” value under setting [1] is reported as 95%. Further, the “Percent Inhibition 50 nM” value (Table 2, HepG2 cells, 50 nM) turned out to be 54%. Moreover, the “Percent Inhibition 150 nM” value (Table 2, HepG2 cells, 150 nM) worked out at 63%. Moreover, the “Percent Inhibition 250 nM” value (Table 2, HepG2 cells, 250 nM) was found to be 72%. Regarding “308643 (antisense AGGTTACCAGCCACATGCAG; 3-10-7 2'-MOE gapmer, phosphorothioate, chemistry not fully specified) [compound 308643]”, the “% INHIB 50 nm” value under setting [3] worked out at 56%. Also, under setting [4], the “% INHIB 150 nm” value is listed as 96%. On to “301060 (e[5mC]*e[5mC]*eA*eG*e[5mC]*dT*d[5mC]*dA*dA*d[5mC]*d[5mC]*dT*dG*dA*dG*eA*eA*eT*eT*e[5mC]; antisense) [compound 301060]”, for which the “% INHIB” value under setting [2] is reported as 17%. Same read-out and setting: next, “301092 (antisense e[5mC]*eA*eT*eG*eA*d[5mC]*d[5mC]*dT*dA*d[5mC]*dT*dT*dG*dT*dA*eG*eG*eA*eG*eA) [compound 301092]”: 22%.

Turning to “308640 (AGGTTACCAGCCACATGCAG; 2-10-8 MOE gapmer, phosphorothioate, chemistry not fully specified) [compound 308640]”, the “% INHIB 50 nm” value under setting [3] worked out at 76%. Further, under setting [4], the “% INHIB 150 nm” value is 96%.

For “281637 (antisense eA*eG*eA*eG*e[5mC]*d[5mC]*dT*dG*dA*dA*dG*dA*d[5mC]*dT*dG*eA*e[5mC]*eT*eT*e[5mC]) [compound 281637]”, the “% INHIB (inhibition of human apolipoprotein B mRNA levels)” value (averages from two experiments) worked out at 74%. Take “308614 (eT*eT*eT*eA*eG*dG*dT*dT*dA*d[5mC]*d[5mC]*dA*dG*d[5mC]*d[5mC]*eA*e[5mC]*eA*eT*eG; antisense) [compound 308614]”: under setting [6], the “% INHIB 50 nm” value came to 74%. Under setting [7], the “% INHIB 150 nm” value is given as 92%.

On to “281632 (antisense eT*eG*eA*eT*eA*dG*dT*dG*d[5mC]*dT*d[5mC]*dA*dT*d[5mC]*dA*eA*eG*eA*e[5mC]*eT) [compound 281632]”, for which the “% INHIB (inhibition of human apolipoprotein B mRNA levels)” value (averages from two experiments) is reported as 75%.

As for “281602 (antisense eG*eT*e[5mC]*eT*eG*dA*dA*dG*dA*dA*dG*dA*dA*d[5mC]*d[5mC]*eT*e[5mC]*e[5mC]*eT*eG) [compound 281602]”, the “% INHIB (inhibition of human apolipoprotein B mRNA levels)” value (averages from two experiments) is reported as 84%.

As for “301188 (antisense eA*eA*e[5mC]*eT*eT*d[5mC]*dT*dA*dA*dA*dG*d[5mC]*d[5mC]*dA*dA*e[5mC]*eA*eT*eT*e[5mC]) [compound 301188]”, the “% INHIB” value under setting [2] is on record as 27%.

Turning to “301113 (antisense eA*eG*eG*eT*eG*d[5mC]*dA*dA*dG*dA*dT*dG*dT*dT*d[5mC]*e[5mC]*eT*e[5mC]*eT*eG) [compound 301113]”, the “% INHIB” value under setting [2] turned out to be 46%.

With “308616 (eT*e[5mC]*e[5mC]*eT*eT*dT*dT*dA*dG*dG*dT*dT*dA*d[5mC]*d[5mC]*eA*eG*e[5mC]*e[5mC]*eA; antisense) [compound 308616]”, the “% INHIB 50 nm” value under setting [6] came out at 39%. For the same substance, the “% INHIB 150 nm” value under setting [7] worked out at 81%. In the case of “147792 (antisense eG*eG*eA*e[5mC]*eA*d[5mC]*d[5mC]*dT*d[5mC]*dA*dA*dT*d[5mC]*dA*dG*e[5mC]*eT*eG*eT*eG) [compound 147792]”, the “% INHIB” value under setting [1] amounted to 26%. For “308662 (antisense TGGTAGCCTCAGTCTGCTTC; 8-10-2 2'-MOE gapmer, phosphorothioate, chemistry not fully specified) [compound 308662]”, the “% INHIB 50 nm” value under setting [3] stood at 76%. Also, the “% INHIB 150 nm” value under setting [4] is reported as 83%. Turning to “301042 (eA*eA*eA*eT*eG*d[5mC]*d[5mC]*dA*dT*d[5mC]*d[5mC]*dT*dT*d[5mC]*dT*eG*eA*eG*eT*eT; antisense) [compound 301042]”, the “% INHIB (inhibition of human apolipoprotein B mRNA levels)” value (averages from two experiments) was 81%. On to “332771 (antisense GCCTCAGTCTTATTCGCACC; sugars from the 5' end e5 d10 e5, all phosphorothioate, methylation of C not given here) [compound 332771]”, for which the “% Change in apolipoprotein B mRNA expression” value (HepG2 cells, 50 nM) is “+37%” and the “% Change in apolipoprotein B mRNA expression” value (HepG2 cells, 150 nM) is given as “+37%”.

For “308617 (eG*e[5mC]*eT*e[5mC]*e[5mC]*dT*dT*dT*dT*dA*dG*dG*dT*dT*dA*e[5mC]*e[5mC]*eA*eG*e[5mC]; antisense) [compound 308617]”, under setting [6], the “% INHIB 50 nm” value is listed as 77%. The “% INHIB 150 nm” value under setting [7] is given as 87%.

With “308607 (eA*eT*eT*eT*eG*dA*dA*dT*dG*dT*d[5mC]*dA*dT*dG*dG*eT*eA*eG*e[5mC]*e[5mC]; antisense) [compound 308607]”, the “% INHIB 50 nm” value under setting [6] turned out to be 9%. Also, under setting [7], the “% INHIB 150 nm” value turned out to be 77%. On to “301155 (eA*eA*eA*eG*eA*dA*dT*dT*dA*d[5mC]*d[5mC]*d[5mC]*dT*d[5mC]*d[5mC]*eA*e[5mC]*eT*eG*eA; antisense) [compound 301155]”, for which the “% INHIB” value under setting [2] was determined as 33%.

With “301015 (e[5mC]*eA*eA*e[5mC]*e[5mC]*dG*dA*dG*dA*dA*dG*dG*dG*d[5mC]*dA*e[5mC]*eT*e[5mC]*eA*eG; antisense) [compound 301015]”, the “% INHIB (inhibition of human apolipoprotein B mRNA levels)” value (averages from two experiments) stood at 53%. For “147817 (antisense eG*e[5mC]*eA*eT*eG*dG*dT*d[5mC]*d[5mC]*d[5mC]*dA*dA*dG*dG*dA*eT*eG*eG*eT*e[5mC]) [compound 147817]”, the “% INHIB” value under setting [1] is 0%.
